24 molecules from patent publication US10011607B2, “Ethynyl derivatives” (Hoffmann-La Roche Inc., priority 2015, dated 2018) can be followed below.

The target of this experiment is human mGlu4 receptor (Homo sapiens (Human), UniProt Q14833). As to the kind of experiment: Ca2+ mobilization in vitro assay on recombinant human mGlu4 expressed in HEK293 cells (PAM). The class given is cell-based. To be noted: for Emax: HEK293, maximal response in % of maximal stimulatory effect of saturating L-AP4, read-out: Eff. (%); for EC50: HEK293 cells, human mGlu4, in presence of EC20 of L-AP4, read-out: EC50 (nM) mGlu4PAM. The method, boiled down: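 HEK293 cells stably expressing human mGlu4 at low level, Fluo-4AM loaded; compound (11 half-log dilutions) pre-incubated 10–30 min at 37 °C, then L-AP4 added at EC20 (determined daily). Peak fluorescence minus basal, normalized to saturating L-AP4; EC50, Hill slope and % Emax from four-parameter fit.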
human mGlu4 receptor, sequence (Q14833 33-912): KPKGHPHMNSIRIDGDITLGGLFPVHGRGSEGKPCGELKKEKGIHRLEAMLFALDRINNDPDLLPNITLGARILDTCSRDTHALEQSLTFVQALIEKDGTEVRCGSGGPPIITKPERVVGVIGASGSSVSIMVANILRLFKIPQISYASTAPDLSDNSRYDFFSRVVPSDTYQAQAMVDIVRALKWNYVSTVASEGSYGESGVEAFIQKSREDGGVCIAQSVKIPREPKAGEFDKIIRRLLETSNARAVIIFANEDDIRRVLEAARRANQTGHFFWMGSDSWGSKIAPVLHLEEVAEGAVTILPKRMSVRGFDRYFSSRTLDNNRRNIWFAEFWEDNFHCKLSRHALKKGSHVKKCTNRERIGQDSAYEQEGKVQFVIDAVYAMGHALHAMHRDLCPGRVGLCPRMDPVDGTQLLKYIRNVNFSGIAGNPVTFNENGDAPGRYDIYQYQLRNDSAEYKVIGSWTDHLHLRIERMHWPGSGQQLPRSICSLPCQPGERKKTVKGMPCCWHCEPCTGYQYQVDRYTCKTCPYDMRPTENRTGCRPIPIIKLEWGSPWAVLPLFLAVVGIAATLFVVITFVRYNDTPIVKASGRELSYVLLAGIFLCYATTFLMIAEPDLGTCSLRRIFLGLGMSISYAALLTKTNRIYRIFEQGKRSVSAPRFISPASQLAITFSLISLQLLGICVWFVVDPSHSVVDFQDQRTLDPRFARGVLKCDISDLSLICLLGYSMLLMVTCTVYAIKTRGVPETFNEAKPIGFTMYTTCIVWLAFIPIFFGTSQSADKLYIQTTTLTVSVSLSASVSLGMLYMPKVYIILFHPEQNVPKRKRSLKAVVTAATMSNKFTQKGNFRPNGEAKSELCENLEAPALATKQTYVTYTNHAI
A general note: Calcium flux is commonly read through the fluorescence of an indicator in the cells.

Molecules are shown by their SMILES.

By EC50 is commonly meant the concentration giving half of the maximal effect. `C[C@@]12CC(=O)N(c3c(F)cc(C#Cc4ccccc4)cc3F)C(=O)N1CCN(c1ccncc1)C2=O` [Example 9, (9aS)-7-[2,6-difluoro-4-(2-phenylethynyl)phenyl]-9a-methyl-2-(4-pyridyl)-4,9-dihydro-3H-pyrazino[1,2-c]pyrimidine-1,6,8-trione]: the Emax is 85% and the EC50 is 29 nM.
As to `Cc1ccnc(N2CCN3C(=O)N(c4c(F)cc(C#Cc5ccccc5)cc4F)C(=O)C[C@@]3(C)C2=O)c1` [Example 13, (9aS)-7-[2,6-difluoro-4-(2-phenylethynyl)phenyl]-9a-methyl-2-(4-methyl-2-pyridyl)-4,9-dihydro-3H-pyrazino[1,2-c]pyrimidine-1,6,8-trione], the Emax came out at 148% and the EC50 stood at 131 nM.
For `Cc1cncc(N2CCN3C(=O)N(c4c(F)cc(C#Cc5ccccc5)cc4F)C(=O)C[C@@]3(C)C2=O)c1` [Example 15, (9aS)-7-[2,6-difluoro-4-(2-phenylethynyl)phenyl]-9a-methyl-2-(5-methyl-3-pyridyl)-4,9-dihydro-3H-pyrazino[1,2-c]pyrimidine-1,6,8-trione] the same measures were 90% and 152 nM.
`Cc1cncc(C)c1N1CCN2C(=O)N(c3c(F)cc(C#Cc4ccccc4)cc3F)C(=O)C[C@@]2(C)C1=O` [Example 17, (9aS)-7-[2,6-difluoro-4-(2-phenylethynyl)phenyl]-2-(3,5-dimethyl-4-pyridyl)-9a-methyl-4,9-dihydro-3H-pyrazino[1,2-c]pyrimidine-1,6,8-trione]: the Emax was found to be 136% and the EC50 was found to be 201 nM.
For `C[C@@]12CC(=O)N(c3c(F)cc(C#Cc4ccccc4)cc3F)C(=O)N1CCN(c1ccnc(Cl)c1)C2=O` [Example 19, (9aS)-2-(2-chloro-4-pyridyl)-7-[2,6-difluoro-4-(2-phenylethynyl)phenyl]-9a-methyl-4,9-dihydro-3H-pyrazino[1,2-c]pyrimidine-1,6,8-trione], in that order: 100% and 69 nM.
Take `C[C@@]12CC(=O)N(c3c(F)cc(C#Cc4ccccc4)cc3F)C(=O)N1CCN(c1ccc(Cl)nc1)C2=O` [Example 21, (9aS)-2-(6-chloro-3-pyridyl)-7-[2,6-difluoro-4-(2-phenylethynyl)phenyl]-9a-methyl-4,9-dihydro-3H-pyrazino[1,2-c]pyrimidine-1,6,8-trione]: the Emax turned out to be 142% and the EC50 was found to be 73 nM.
As for `COc1ccc(N2CCN3C(=O)N(c4c(F)cc(C#Cc5ccccc5)cc4F)C(=O)C[C@@]3(C)C2=O)cn1` [Example 23, (9aS)-7-[2,6-difluoro-4-(2-phenylethynyl)phenyl]-2-(6-methoxy-3-pyridyl)-9a-methyl-4,9-dihydro-3H-pyrazino[1,2-c]pyrimidine-1,6,8-trione], the Emax was found to be 114% and the half-maximal effective concentration (EC50) was 61 nM.
`Cn1cc(N2CCN3C(=O)N(c4c(F)cc(C#Cc5ccccc5)cc4F)C(=O)C[C@@]3(C)C2=O)ccc1=O` [Example 24, (9aS)-7-[2,6-difluoro-4-(2-phenylethynyl)phenyl]-9a-methyl-2-(1-methyl-6-oxo-3-pyridyl)-4,9-dihydro-3H-pyrazino[1,2-c]pyrimidine-1,6,8-trione]: the Emax is 103% and the EC50 was 128 nM.
With `C[C@@]12CC(=O)N(c3c(F)cc(C#Cc4ccccc4)cc3F)C(=O)N1CCN(c1ccncn1)C2=O` [Example 27, (9aS)-7-[2,6-difluoro-4-(2-phenylethynyl)phenyl]-9a-methyl-2-pyrimidin-4-yl-4,9-dihydro-3H-pyrazino[1,2-c]pyrimidine-1,6,8-trione], the Emax amounted to 136% and the EC50 turned out to be 39 nM.
Consider `Cc1nccc(N2CCN3C(=O)N(c4c(F)cc(C#Cc5ccccc5)cc4F)C(=O)C[C@@]3(C)C2=O)n1` [Example 31, (9aS)-7-[2,6-difluoro-4-(2-phenylethynyl)phenyl]-9a-methyl-2-(2-methylpyrimidin-4-yl)-4,9-dihydro-3H-pyrazino[1,2-c]pyrimidine-1,6,8-trione], for which the Emax was found to be 91% and the concentration giving a half-maximal response (EC50) was determined as 88 nM.
For `C[C@@]12CC(=O)N(c3c(F)cc(C#Cc4ccccc4)cc3F)C(=O)N1CCN(c1cnccn1)C2=O` [Example 33, (9aS)-7-[2,6-difluoro-4-(2-phenylethynyl)phenyl]-9a-methyl-2-pyrazin-2-yl-4,9-dihydro-3H-pyrazino[1,2-c]pyrimidine-1,6,8-trione], in that order: 107% and 46 nM.
Turning to `Cc1cc(N2CCN3C(=O)N(c4c(F)cc(C#Cc5ccccc5)cc4F)C(=O)C[C@@]3(C)C2=O)ncn1` [Example 35, (9aS)-7-[2,6-difluoro-4-(2-phenylethynyl)phenyl]-9a-methyl-2-(6-methylpyrimidin-4-yl)-4,9-dihydro-3H-pyrazino[1,2-c]pyrimidine-1,6,8-trione], the Emax worked out at 121% and the EC50 is 91 nM.
As to `Cc1cncnc1N1CCN2C(=O)N(c3c(F)cc(C#Cc4ccccc4)cc3F)C(=O)C[C@@]2(C)C1=O` [Example 36, (9aS)-7-[2,6-difluoro-4-(2-phenylethynyl)phenyl]-9a-methyl-2-(5-methylpyrimidin-4-yl)-4,9-dihydro-3H-pyrazino[1,2-c]pyrimidine-1,6,8-trione], the Emax stood at 132% and the EC50 came to 86 nM.
For `COc1ncc(N2CCN3C(=O)N(c4c(F)cc(C#Cc5ccccc5)cc4F)C(=O)C[C@@]3(C)C2=O)cn1` [Example 37, (9aS)-7-[2,6-difluoro-4-(2-phenylethynyl)phenyl]-2-(2-methoxypyrimidin-5-yl)-9a-methyl-4,9-dihydro-3H-pyrazino[1,2-c]pyrimidine-1,6,8-trione], in that order: 90% and 55 nM.
With `CC(C)(C)Oc1ncc(N2CCN3C(=O)N(c4c(F)cc(C#Cc5ccccc5)cc4F)C(=O)C[C@@]3(C)C2=O)cn1` [Example 38, (9aS)-2-(2-tert-butoxypyrimidin-5-yl)-7-[2,6-difluoro-4-(2-phenylethynyl)phenyl]-9a-methyl-4,9-dihydro-3H-pyrazino[1,2-c]pyrimidine-1,6,8-trione], the Emax came to 107%.
Take `CCOc1ncc(N2CCN3C(=O)N(c4c(F)cc(C#Cc5ccccc5)cc4F)C(=O)C[C@@]3(C)C2=O)cn1` [Example 39, (9aS or 9aR)-7-[2,6-difluoro-4-(2-phenylethynyl)phenyl]-2-(2-ethoxypyrimidin-5-yl)-9a-methyl-4,9-dihydro-3H-pyrazino[1,2-c]pyrimidine-1,6,8-trione]: the Emax was determined as 103% and the EC50 stood at 96 nM.
For `CC(C)Oc1ncc(N2CCN3C(=O)N(c4c(F)cc(C#Cc5ccccc5)cc4F)C(=O)C[C@@]3(C)C2=O)cn1` [Example 40, (9aS)-7-[2,6-difluoro-4-(2-phenylethynyl)phenyl]-2-(2-isopropoxypyrimidin-5-yl)-9a-methyl-4,9-dihydro-3H-pyrazino[1,2-c]pyrimidine-1,6,8-trione] the same measures were 103% and 113 nM.
Take `C[C@@]12CC(=O)N(c3c(F)cc(C#Cc4ccccc4)cc3F)C(=O)N1CCN(c1cnc(OCc3ccccc3)nc1)C2=O` [Example 41, (9aS)-2-(2-benzyloxypyrimidin-5-yl)-7-[2,6-difluoro-4-(2-phenylethynyl)phenyl]-9a-methyl-4,9-dihydro-3H-pyrazino[1,2-c]pyrimidine-1,6,8-trione]: the Emax turned out to be 99% and the EC50 was determined as 81 nM.
With `C[C@@]12CC(=O)N(c3c(F)cc(C#Cc4ccccc4)cc3F)C(=O)N1CCN(c1cnc(O)nc1)C2=O` [Example 42, (9aS)-7-[2,6-difluoro-4-(2-phenylethynyl)phenyl]-2-(2-hydroxypyrimidin-5-yl)-9a-methyl-4,9-dihydro-3H-pyrazino[1,2-c]pyrimidine-1,6,8-trione], the Emax was 129% and the half-maximal effective concentration (EC50) was determined as 73 nM.
For `C[C@@]12CC(=O)N(c3c(F)cc(C#Cc4ccccc4)cc3F)C(=O)N1CCN(c1cnc(OC3CC3)nc1)C2=O` [Example 43, (9aS)-2-[2-(cyclopropoxy)pyrimidin-5-yl]-7-[2,6-difluoro-4-(2-phenylethynyl)phenyl]-9a-methyl-4,9-dihydro-3H-pyrazino[1,2-c]pyrimidine-1,6,8-trione], in that order: 153% and 171 nM.
In the case of `COc1cnc(N2CCN3C(=O)N(c4c(F)cc(C#Cc5ccccc5)cc4F)C(=O)C[C@@]3(C)C2=O)cn1` [Example 44, (9aS)-7-[2,6-difluoro-4-(2-phenylethynyl)phenyl]-2-(5-methoxypyrazin-2-yl)-9a-methyl-4,9-dihydro-3H-pyrazino[1,2-c]pyrimidine-1,6,8-trione], the Emax is 107% and the EC50 came out at 123 nM.
Turning to `C[C@@]12CC(=O)N(c3c(F)cc(C#Cc4ccccc4)cc3F)C(=O)N1CCN(c1cnc(OCc3ccccc3)cn1)C2=O` [Example 45, (9aS)-2-(5-benzyloxypyrazin-2-yl)-7-[2,6-difluoro-4-(2-phenylethynyl)phenyl]-9a-methyl-4,9-dihydro-3H-pyrazino[1,2-c]pyrimidine-1,6,8-trione], the Emax came to 122% and the EC50 came to 190 nM.
Take `C[C@@]12CC(=O)N(c3c(F)cc(C#Cc4ccccc4)cc3F)C(=O)N1CCN(c1cccnn1)C2=O` [Example 47, (9aS)-7-[2,6-difluoro-4-(2-phenylethynyl)phenyl]-9a-methyl-2-pyridazin-3-yl-4,9-dihydro-3H-pyrazino[1,2-c]pyrimidine-1,6,8-trione]: the Emax is 98% and the concentration for a half-maximal effect (EC50) stood at 55 nM.
Turning to `Cn1nc(N2CCN3C(=O)N(c4c(F)cc(C#Cc5ccccc5)cc4F)C(=O)C[C@@]3(C)C2=O)ccc1=O` [Example 49, (9aS)-7-[2,6-difluoro-4-(2-phenylethynyl)phenyl]-9a-methyl-2-(1-methyl-6-oxo-pyridazin-3-yl)-4,9-dihydro-3H-pyrazino[1,2-c]pyrimidine-1,6,8-trione], the Emax stood at 109% and the EC50 is 197 nM.
